ChEMBL document CHEMBL4619795, “Establishing the Structure-Activity Relationship of Daptomycin” (ACS Med Chem Lett, 2020)
Active and inactive are the calls of the source. The calls are words filed in the database; no cut-off is given here.

Experiments:
[1] = tested on: Staphylococcus aureus; experiment: Antibacterial activity against methicillin-resistant Staphylococcus aureus 11 assessed as bacterial growth inhibition in presence of 50 ug/ml calcium ions by CLSI protocol based broth microdilution method; assay type: functional
[2] = tested on: Staphylococcus aureus; experiment: Antibacterial activity against methicillin-resistant Staphylococcus aureus 14 assessed as bacterial growth inhibition in presence of 50 ug/ml calcium ions by CLSI protocol based broth microdilution method; assay type: functional
[3] = tested on: Staphylococcus aureus; experiment: Antibacterial activity against methicillin-resistant Staphylococcus aureus 86 assessed as bacterial growth inhibition in presence of 50 ug/ml calcium ions by CLSI protocol based broth microdilution method; assay type: functional
[4] = tested on: Staphylococcus aureus; experiment: Antibacterial activity against methicillin-resistant Staphylococcus aureus 88 assessed as bacterial growth inhibition in presence of 50 ug/ml calcium ions by CLSI protocol based broth microdilution method; assay type: functional
[5] = tested on: Staphylococcus aureus; experiment: Antibacterial activity against Staphylococcus aureus ATCC 29213 assessed as bacterial growth inhibition in presence of 50 ug/ml calcium ions by CLSI protocol based broth microdilution method; assay type: functional
[6] = tested on: Enterococcus faecalis; experiment: Antibacterial activity against Streptococcus faecalis assessed as bacterial growth inhibition in presence of 50 ug/ml calcium ions by CLSI protocol based broth microdilution method; assay type: functional
[7] = tested on: Enterococcus; experiment: Antibacterial activity against Enterococcus 6 assessed as bacterial growth inhibition in presence of 50 ug/ml calcium ions by CLSI protocol based broth microdilution method; assay type: functional
[8] = tested on: Enterococcus; experiment: Antibacterial activity against Enterococcus 60 assessed as bacterial growth inhibition in presence of 50 ug/ml calcium ions by CLSI protocol based broth microdilution method; assay type: functional
[9] = tested on: Enterococcus faecalis; experiment: Antibacterial activity against Enterococcus faecalis ATCC 29212 assessed as bacterial growth inhibition in presence of 50 ug/ml calcium ions by CLSI protocol based broth microdilution method; assay type: functional
[10] = tested on: Lipid bilayer; experiment: Binding affinity to POPC/POPG (1:1) large unilamellar vesicles assessed as change in ellipticity […] at 50 uM in presence of phosphatidylglycerol and Ca2+ ions by circular dichroism spectroscopy
[11] = tested on: Lipid bilayer; experiment: Binding affinity to POPC large unilamellar vesicles assessed as change in ellipticity […] at 50 uM in presence of phosphatidylglycerol and Ca2+ ions by circular dichroism spectroscopy
[12] = tested on: Staphylococcus aureus; experiment: Antibacterial activity against Staphylococcus aureus ATCC 43300 infected in Galleria mellonella larvae assessed as increase in larvae survival at 50 mg/kg measured up to 48 hrs post-infection; assay type: functional, organism-based
[13] = Toxicity in Galleria mellonella larvae infected with Staphylococcus aureus ATCC 43300 assessed as larvae death at 50 mg/kg measured at 36 hrs post-infection; assay type: organism-based; details: in vivo
[14] = tested on: Lipid bilayer; experiment: Binding affinity to POPC/POPG (1:1) large unilamellar vesicles assessed as close proximity of tryptophan and kynurenine residues at 50 uM in presence of phosphatidylglycerol and Ca2+ ions by circular dichroism spectroscopy
[15] = tested on: Lipid bilayer; experiment: Binding affinity to POPC large unilamellar vesicles assessed as close proximity of tryptophan and kynurenine residues at 50 uM in presence of phosphatidylglycerol and Ca2+ ions by circular dichroism spectroscopy
[16] = tested on: Lipid bilayer; experiment: Binding affinity to POPC/POPG (1:1) large unilamellar vesicles assessed as conformational changes at 50 uM in presence of phosphatidylglycerol and Ca2+ ions by circular dichroism spectroscopy
[17] = tested on: Lipid bilayer; experiment: Binding affinity to POPC large unilamellar vesicles assessed as conformational changes at 50 uM in presence of phosphatidylglycerol and Ca2+ ions by circular dichroism spectroscopy
[18] = tested on: Staphylococcus aureus; experiment: Bactericidal activity against Staphylococcus aureus 86 assessed as reduction in colony formation at 8 ug/ml measured at 24 hrs by time-killing assay; assay type: functional, organism-based
[19] = tested on: Staphylococcus aureus; experiment: Antibacterial activity against Staphylococcus aureus ATCC 29213 assessed as decrease in mutation prevention concentration measured after 72 hrs; assay type: functional, organism-based

SMILES	MIC [1]	MIC [2]	MIC [3]	MIC [4]	MIC [5]	MIC [6]	MIC [7]	MIC [8]	MIC [9]	Activity [10]	Activity [11]	Activity [12]	Activity [13]	Activity [14]	Activity [15]	Activity [16]	Activity [17]	Activity [18]	Activity [19]
CCCCCCCCCC(=O)N[C@@H](Cc1c[nH]c2ccccc12)C(=O)N[C@@H](CC(N)=O)C(=O)N[C@@H](CC(=O)O)C(=O)N[C@@H]1C(=O)NCC(=O)N[C@@H](CCCN)C(=O)N[C@@H](CC(N)=O)C(=O)N[C@H](C)C(=O)N[C@@H](CC(N)=O)C(=O)NCC(=O)N[C@H](CO)C(=O)N[C@@H]([C@@H](C)CC(=O)O)C(=O)N[C@@H](CC(=O)c2ccccc2N)C(=O)O[C@@H]1C	≥ 32 µg/mL	≥ 32 µg/mL	≥ 32 µg/mL	≥ 32 µg/mL	≥ 32 µg/mL	≥ 32 µg/mL	≥ 32 µg/mL	≥ 32 µg/mL	≥ 32 µg/mL	Active	Active	–	–	–	–	–	–	–	–
CCCCCCCCCC(=O)N[C@@H](Cc1c[nH]c2ccccc12)C(=O)N[C@@H](CC(N)=O)C(=O)N[C@@H](CC(=O)O)C(=O)N[C@@H]1C(=O)NCC(=O)N[C@@H](CCCN)C(=O)N[C@@H](CC(=O)O)C(=O)N[C@H](C)C(=O)N[C@@H](CCC(=O)O)C(=O)NCC(=O)N[C@H](CO)C(=O)N[C@@H]([C@@H](C)CC(=O)O)C(=O)N[C@@H](CC(=O)c2ccccc2N)C(=O)O[C@@H]1C	≥ 32 µg/mL	≥ 32 µg/mL	≥ 32 µg/mL	≥ 32 µg/mL	≥ 32 µg/mL	≥ 32 µg/mL	≥ 32 µg/mL	≥ 32 µg/mL	≥ 32 µg/mL	Active	Active	–	–	–	–	–	–	–	–
CCCCCCCCCC(=O)N[C@@H](Cc1c[nH]c2ccccc12)C(=O)N[C@H](CC(N)=O)C(=O)N[C@@H](CC(=O)O)C(=O)N[C@@H]1C(=O)NCC(=O)N[C@@H](CCCN)C(=O)N[C@@H](CC(=O)O)C(=O)N[C@H](C)C(=O)N[C@@H](CC(=O)O)C(=O)NCC(=O)N[C@H](CO)C(=O)N[C@@H]([C@H](C)CC(=O)O)C(=O)N[C@@H](CC(=O)c2ccccc2N)C(=O)O[C@@H]1C	0.5 µg/mL	0.5 µg/mL	0.5 µg/mL	0.25 µg/mL	0.25 µg/mL	4 µg/mL	2 µg/mL	2 µg/mL	4 µg/mL	–	–	inactive	Toxic	Active	Active	Active	Active	–	–
C[C@H]1NC(=O)[C@H](CC(=O)O)NC(=O)[C@H](CCCN)NC(=O)CNC(=O)[C@@H](NC(=O)[C@H](CC(=O)O)NC(=O)[C@H](CC(N)=O)NC(=O)[C@H](Cc2c[nH]c3ccccc23)NC(=O)c2ccc(C#Cc3ccc(-c4ccccc4)cc3)cc2)[C@@H](C)OC(=O)[C@H](CC(=O)c2ccccc2N)NC(=O)[C@H]([C@@H](C)CC(=O)O)NC(=O)[C@@H](CO)NC(=O)CNC(=O)[C@H](CC(=O)O)NC1=O	1 µg/mL	1 µg/mL	2 µg/mL	1 µg/mL	2 µg/mL	2 µg/mL	0.5 µg/mL	2 µg/mL	0.5 µg/mL	–	–	–	–	–	–	–	–	–	–
CCCCCCCCCC(=O)N[C@@H](Cc1c[nH]c2ccccc12)C(=O)N[C@@H](CC(N)=O)C(=O)N[C@@H](CC(=O)O)C(=O)N[C@@H]1C(=O)NCC(=O)N[C@@H](CO)C(=O)N[C@@H](CC(=O)O)C(=O)N[C@H](C)C(=O)N[C@@H](CC(=O)O)C(=O)NCC(=O)N[C@H](CO)C(=O)N[C@@H]([C@@H](C)CC(=O)O)C(=O)N[C@@H](CC(=O)c2ccccc2N)C(=O)O[C@@H]1C	4 µg/mL	4 µg/mL	2 µg/mL	1 µg/mL	2 µg/mL	4 µg/mL	32 µg/mL	≥ 32 µg/mL	≥ 32 µg/mL	–	–	–	–	–	–	–	–	–	–
CCCCCCCCCC(=O)N[C@@H](Cc1cn(C)c2ccccc12)C(=O)N[C@@H](CC(N)=O)C(=O)N[C@@H](CC(=O)O)C(=O)N[C@@H]1C(=O)NCC(=O)N[C@@H](CCCN)C(=O)N[C@@H](CC(=O)O)C(=O)N[C@H](C)C(=O)N[C@@H](CC(=O)O)C(=O)NCC(=O)N[C@H](CO)C(=O)N[C@@H]([C@@H](C)CC(=O)O)C(=O)N[C@@H](CC(=O)c2ccccc2N)C(=O)O[C@@H]1C	–	–	–	–	–	–	–	–	–	–	–	–	–	–	–	–	–	Active	Active
CCCCCCCCCC(=O)N[C@@H](Cc1c[nH]c2ccccc12)C(=O)N[C@@H](CC(N)=O)C(=O)N[C@@H](CC(=O)O)C(=O)N[C@@H]1C(=O)NCC(=O)N[C@@H](CCCN)C(=O)N[C@@H](CC(=O)O)C(=O)N[C@H](C)C(=O)N[C@@H](C(C)CC(=O)O)C(=O)NCC(=O)N[C@H](CO)C(=O)N[C@@H](C(C)CC(=O)O)C(=O)N[C@@H](CC(=O)c2ccccc2N)C(=O)O[C@@H]1C (single isomer, unassigned)	≥ 32 µg/mL	≥ 32 µg/mL	≥ 32 µg/mL	≥ 32 µg/mL	≥ 32 µg/mL	≥ 32 µg/mL	≥ 32 µg/mL	≥ 32 µg/mL	≥ 32 µg/mL	–	–	–	–	–	–	–	–	–	–
CCCCCCCCCC(=O)N[C@@H](Cc1c[nH]c2ccccc12)C(=O)N[C@@H](CC(N)=O)C(=O)N[C@@H](CC(=O)O)C(=O)N[C@@H]1C(=O)NCC(=O)N[C@@H]([C@@H](C)O)C(=O)N[C@@H](CC(=O)O)C(=O)N[C@H](C)C(=O)N[C@@H](CC(=O)O)C(=O)NCC(=O)N[C@H](CO)C(=O)N[C@@H]([C@@H](C)CC(=O)O)C(=O)N[C@@H](CC(=O)c2ccccc2N)C(=O)O[C@@H]1C	16 µg/mL	16 µg/mL	2 µg/mL	2 µg/mL	2 µg/mL	≥ 32 µg/mL	≥ 32 µg/mL	≥ 32 µg/mL	≥ 32 µg/mL	–	–	–	–	–	–	–	–	–	–
